{
  "source": "patent US11802258B2",
  "about": "“Perfume precursor” (TAKASAGO INTERNATIONAL CORPORATION, priority 2017, dated 2023)",
  "key": {"[1]": {"tested_on": "lipase preparation AY “Amano” 30SD", "assay": "Lipase-induced scent emission test, lipase preparation AY “Amano” 30SD", "type": "biochemical", "conditions": "GC/MS head space peak area of scent-emitting compound minus water control; 10 mg fragrance precursor + 1 g aqueous 1% lipase preparation solution", "experimental": "(§1) 10 mg of a fragrance precursor and 1 g of an aqueous 1% lipase preparation solution were put in a vial bottle and mixed and after hermetically sealing the bottle, the mixture was subjected to GC/MS analysis of the head space component to obtain a peak area of the scent-emitting compound. As a control, water was used in place of the aqueous 1% lipase preparation solution, and a peak area of the control was obtained by the same method. The scent emission amount was determined from the difference between the obtained peak area of the scent-emitting compound and the peak area of the control.\n(§2) (GC/MS Measurement Conditions)\n(§3) Measurement instrument: 7890GC/5975M (manufactured by Agilent Technologies) • Column: BC-WAX50 m×0.25 mm I.D. • Temperature rise: 70° C. to 220° C., 4° C./min • Split ratio: 60:1"}, "[2]": {"tested_on": "Staphylococcus aureus NBRC12732", "assay": "Scent emission test by microorganism, Staphylococcus aureus", "type": "cell-based", "conditions": "GC/MS head space peak area minus control culture; 10 mg fragrance precursor in 3 mL culture solution, 30° C., 20 hours", "experimental": "(§4) Culture of Staphylococcus aureus strain NBRC12732, Corynebacterium xerosis strain JCM1324, Pseudomonas aeruginosa strain NBRC13275, and Moraxella osloensis strain ATCC19976:\n(§5) After inoculating each of bacteria in Muller-Hinton liquid medium, shaking culture was performed at 30° C. for 20 hours, and 3 mL of the resulting preculture solution was transferred to a vial bottle. 10 mg of each of the fragrance precursors was mixed therewith and after hermetical sealing, shaking culture was further performed at 30° C. for 20 hours.\n(§6) A peak area of the scent-emitting compound was obtained by performing GC/MS analysis of the head space component included in the vial bottle containing 3 mL of a microorganism culture solution in which 10 mg of the fragrance precursor was mixed. A microorganism culture solution having not mixed therein the fragrance precursor was used as the control, and a peak area of the control was obtained by the same method. The scent emission amount was determined from the difference between the obtained peak area of the scent-emitting compound and the peak area of the control.\n(§7) Measurement instrument: 7890GC/5975MSD (manufactured by Agilent Technologies) • Column: BC-WAX 50 m×0.25 mm I.D. • Temperature rise: 70° C. to 220° C., 4° C./min • Split ratio: splitless"}, "[3]": {"biological_target": "T1, lipase preparation Lipex 100 L (Thermomyces lanuginosus, UniProt O59952, N255R/T253R)", "T1 construct": "purchased Novozymes Lipex 100 L", "T1 sequence (O59952 23-291 T253R/N255R)": "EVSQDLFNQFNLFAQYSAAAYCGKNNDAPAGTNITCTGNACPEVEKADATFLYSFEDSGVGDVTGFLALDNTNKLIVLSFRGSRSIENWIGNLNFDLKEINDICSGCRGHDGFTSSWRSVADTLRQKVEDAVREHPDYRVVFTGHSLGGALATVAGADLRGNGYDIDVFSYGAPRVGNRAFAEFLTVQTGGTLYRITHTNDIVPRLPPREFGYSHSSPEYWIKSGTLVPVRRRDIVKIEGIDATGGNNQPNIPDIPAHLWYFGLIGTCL", "assay": "Lipase-induced scent emission test, lipase preparation Lipex 100 L", "type": "biochemical", "conditions": "for Scent Emission Amount: GC/MS head space peak area of scent-emitting compound minus water control, 10 mg fragrance precursor + 1 g aqueous 1% lipase preparation solution; for Scent-Emitting Compound: compound released, GC/MS of head space", "experimental": "as §1, §2, §3"}, "[4]": {"tested_on": "Moraxella osloensis ATCC19976", "assay": "Scent emission test by microorganism, Moraxella osloensis", "type": "cell-based", "conditions": "GC/MS head space peak area minus control culture; 10 mg fragrance precursor in 3 mL culture solution, 30° C., 20 hours", "experimental": "as §4, §5, §6, §7"}, "[5]": {"tested_on": "Propionibacterium acnes JCM6473", "assay": "Scent emission test by microorganism, Propionibacterium acnes", "type": "cell-based", "conditions": "GC/MS head space peak area minus control culture; 10 mg fragrance precursor in 3 mL culture solution, static culture 28° C., 3 days", "experimental": "Culture of Propionibacterium acnes Strain JCM6473:\nAfter inoculating the bacterium in GAM bouillon liquid medium containing Hemin 0.5 ppm and Menadione 0.5 ppm, static culture was performed at 28° C. for 3 days under anaerobic conditions, and 3 mL of the resulting preculture solution was transferred to a vial bottle. 10 mg of each of the fragrance precursors was mixed therewith and after hermetical sealing, static culture was further performed at 28° C. for 3 days.\nas §6, §7"}, "[6]": {"tested_on": "Malassezia furfur NBRC0656", "assay": "Scent emission test by microorganism, Malassezia furfur", "type": "cell-based", "conditions": "GC/MS head space peak area minus control culture; 10 mg fragrance precursor in 3 mL culture solution, static culture 28° C., 3 days", "experimental": "Culture of Malassezia furfur Strain NBRC0656:\nAfter inoculating the bacterium in Sabouraud liquid medium containing 0.1% Tween 80, static culture was performed at 28° C. for 3 days under anaerobic conditions, and 3 mL of the resulting preculture solution was transferred to a vial bottle. 10 mg of the fragrance precursor was mixed therewith and after hermetical sealing, static culture was further performed at 28° C. for 3 days.\nas §6, §7"}, "[7]": {"tested_on": "Pseudomonas aeruginosa NBRC13275", "assay": "Scent emission test by microorganism, Pseudomonas aeruginosa", "type": "cell-based", "conditions": "GC/MS head space peak area minus control culture; 10 mg fragrance precursor in 3 mL culture solution, 30° C., 20 hours", "experimental": "as §4, §5, §6, §7"}, "[8]": {"tested_on": "Corynebacterium xerosis JCM1324", "assay": "Scent emission test by microorganism, Corynebacterium xerosis", "type": "cell-based", "conditions": "GC/MS head space peak area minus control culture; 10 mg fragrance precursor in 3 mL culture solution, 30° C., 20 hours", "experimental": "as §4, §5, §6, §7"}},
  "data": [
    {"smiles": "CC/C=C\\CCOC(=O)c1ccccc1O", "note": "[(Z)-3-hexenyl salicylate]", "values": [
      {"measurement": "Scent Emission Amount", "setting": "[1]", "value": "16,933,990"},
      {"measurement": "Scent Emission Amount", "setting": "[2]", "value": "14,126,965"}
    ]},
    {"smiles": "CC(C)=CCC[C@H](C)CCOC(=O)c1ccccc1", "note": "[Example 1, 3,7-dimethyl-6-octenyl benzoate]", "values": [
      {"measurement": "Scent Emission Amount", "setting": "[3]", "value": "28,098,876"},
      {"measurement": "Scent-Emitting Compound", "setting": "[3]", "value": "citronellol"}
    ]},
    {"smiles": "CCCC(CC[C@@H]1[C@@H](C)CCCC1(C)C)OC(=O)c1ccc(OC)cc1", "note": "(stereo partly drawn) [Example 3, 1-((R,6S)-2,2,6-trimethylcyclohexyl)-3-hexanyl Anisate]", "values": [
      {"measurement": "Scent Emission Amount", "setting": "[1]", "value": "40,373,157"},
      {"measurement": "Scent Emission Amount", "setting": "[3]", "value": "40,430,750"}
    ]},
    {"smiles": "CC(C)[C@@H]1CC[C@@H](C)C[C@H]1OC(=O)c1ccccc1", "note": "[Example 6, (1R,2S,5R)-isopropyl-5-methylcyclohexyl benzoate]", "values": [
      {"measurement": "Scent Emission Amount", "setting": "[1]", "value": "82,023,336"}
    ]},
    {"smiles": "CC(C)=CCC/C(C)=C/CC[C@H](C)CCOC(=O)c1ccccc1", "note": "[Example 7, (S,E)-3,7,11-trimethyl-6,10-dodecadienyl Benzoate]", "values": [
      {"measurement": "Scent Emission Amount", "setting": "[1]", "value": "88,986,381"}
    ]},
    {"smiles": "COc1ccc(C(=O)OCC[C@@H](C)CC/C=C(\\C)CCC=C(C)C)cc1", "note": "[Example 8, (S,E)-3,7,11-trimethyl-6,10-dodecadienyl Anisate]", "values": [
      {"measurement": "Scent Emission Amount", "setting": "[1]", "value": "23,338,647"}
    ]},
    {"smiles": "CC(C)=CCC/C(C)=C/CC[C@H](C)CCOC(=O)/C=C/c1ccccc1", "note": "[Example 10, (S,E)-3,7,11-trimethyl-6,10-dodecadienyl Cinnamate]", "values": [
      {"measurement": "Scent Emission Amount", "setting": "[3]", "value": "19,967,420"},
      {"measurement": "Scent-Emitting Compound", "setting": "[3]", "value": "dihydrofarnesol"}
    ]},
    {"smiles": "CC/C=C\\CCOC(=O)c1ccccc1", "note": "[Example 11, (Z)-3-hexenyl Benzoate]", "values": [
      {"measurement": "Scent Emission Amount", "setting": "[1]", "value": "49,663,459"}
    ]},
    {"smiles": "C=CCc1ccc(OC(=O)c2ccccc2)c(OC)c1", "note": "[Example 12, 4-allyl-2-methoxyphenyl benzoate]", "values": [
      {"measurement": "Scent Emission Amount", "setting": "[3]", "value": "164,744,420"},
      {"measurement": "Scent-Emitting Compound", "setting": "[3]", "value": "eugenol"}
    ]},
    {"smiles": "COc1cc(C=O)ccc1OC(=O)c1ccccc1", "note": "[Example 13, 4-formyl-2-methoxyphenyl Benzoate]", "values": [
      {"measurement": "Scent Emission Amount", "setting": "[3]", "value": "47,188,750"},
      {"measurement": "Scent-Emitting Compound", "setting": "[3]", "value": "vanillin"}
    ]},
    {"smiles": "C=CCCCCCCCCOC(=O)c1ccccc1", "note": "[Example 14, 9-decenyl Benzoate]", "values": [
      {"measurement": "Scent Emission Amount", "setting": "[4]", "value": "86,274,718"},
      {"measurement": "Scent Emission Amount", "setting": "[5]", "value": "133,440,692"},
      {"measurement": "Scent Emission Amount", "setting": "[6]", "value": "304,030,021"}
    ]},
    {"smiles": "O=C(C=Cc1ccccc1)OCC=Cc1ccccc1", "note": "[cinnamyl cinnamate]", "values": [
      {"measurement": "Scent Emission Amount", "setting": "[1]", "value": "24,711,289"}
    ]},
    {"smiles": "CC(C)=CCCC(C)CCOC(=O)Cc1ccccc1", "note": "(stereo not drawn) [citronellyl phenylacetate]", "values": [
      {"measurement": "Scent Emission Amount", "setting": "[7]", "value": "150,385,642"},
      {"measurement": "Scent Emission Amount", "setting": "[4]", "value": "500,940,481"},
      {"measurement": "Scent Emission Amount", "setting": "[5]", "value": "292,401,763"},
      {"measurement": "Scent Emission Amount", "setting": "[6]", "value": "369,118,269"}
    ]},
    {"smiles": "CC(C)=CCC/C(C)=C/COC(=O)c1ccccc1", "note": "[geranyl benzoate]", "values": [
      {"measurement": "Scent Emission Amount", "setting": "[1]", "value": "78,461,812"},
      {"measurement": "Scent Emission Amount", "setting": "[2]", "value": "839,961,157"},
      {"measurement": "Scent Emission Amount", "setting": "[7]", "value": "117,161,311"},
      {"measurement": "Scent Emission Amount", "setting": "[5]", "value": "105,061,217"},
      {"measurement": "Scent Emission Amount", "setting": "[6]", "value": "121,633,184"}
    ]},
    {"smiles": "CC(C)=CCC/C(C)=C/COC(=O)Cc1ccccc1", "note": "[geranyl phenylacetate]", "values": [
      {"measurement": "Scent Emission Amount", "setting": "[1]", "value": "54,842,763"},
      {"measurement": "Scent Emission Amount", "setting": "[8]", "value": "39,033,900"}
    ]},
    {"smiles": "O=C(OCCc1ccccc1)c1ccccc1", "note": "[phenylethyl benzoate]", "values": [
      {"measurement": "Scent Emission Amount", "setting": "[1]", "value": "96,460,830"}
    ]},
    {"smiles": "O=C(C=Cc1ccccc1)OCCc1ccccc1", "note": "[phenylethyl cinnamate]", "values": [
      {"measurement": "Scent Emission Amount", "setting": "[1]", "value": "22,892,002"},
      {"measurement": "Scent Emission Amount", "setting": "[2]", "value": "144,750,281"},
      {"measurement": "Scent Emission Amount", "setting": "[7]", "value": "247,508,719"},
      {"measurement": "Scent Emission Amount", "setting": "[5]", "value": "112,497,882"},
      {"measurement": "Scent Emission Amount", "setting": "[6]", "value": "351,450,490"}
    ]},
    {"smiles": "O=C(Cc1ccccc1)OCCc1ccccc1", "note": "[phenylethyl phenylacetate]", "values": [
      {"measurement": "Scent Emission Amount", "setting": "[1]", "value": "50,855,859"}
    ]},
    {"smiles": "C=C(C)CCC[C@H](C)CCOC(=O)Cc1ccccc1", "note": "[rosinyl phenylacetate]", "values": [
      {"measurement": "Scent Emission Amount", "setting": "[1]", "value": "56,492,946"}
    ]}
  ]
}
